Where no end group is shown, it is not given here. The star is where a group is joined. For = O=C*

This test has as its system ERα. Kind of test: ERα protein expression by Western blot in stimulated MDA-MB-231 cells. Type of test: cell-based, human. To be noted: stimulation 24 and 48 hours, rWnt-5a 0.6 μg/ml, rWnt-3a 0.1 μg/ml, peptides 100 μM. Here is the method:
Breast cancer cells were grown in 6 well plates, and stimulated with recombinant Wnt-5a protein (rW5a), the Wnt-5a derived Foxy-5 peptide (F5), recombinant Wnt-3a protein (rW3a), or a formylated random hexapeptide (Rdm) for 24 or 48 h. Following treatment cells were lysed and subjected to SDS-PAGE, transferred to nitrocellulose membranes and blotted for ERα expression. A: MDA-MB-231 cells stimulated with recombinant Wnt-5a, Foxy-5, Wnt-3a, Rdm. B: MDA-MB-468 cells stimulated with recombinant Wnt-5a or Foxy-5. C: 4T1 cells stimulated with recombinant Wnt-5a or Foxy-5. Positive controls (Pos) were included in order to confirm the correct band size for ERα. Two different positive controls were used: T47D cell lysates known to express ERα and MDA-MB-231 cells transiently transfected with a full length ERα plasmid, resulting in extremely high ERα expression (top row, right panel, third row, right panel).
Stimulation of cells was performed with recombinant Wnt-5a (0.6 μg/ml) and recombinant Wnt-3a (0.1 μg/ml and in a control experiment, 0.6 μg/ml) (R&D Systems Abington, UK) for times as indicated. The Wnt-5a derived formylated hexapeptide, Foxy-5 (formyl-MDGCEL) (SEQ. ID. NO. 1) designed in the laboratory of the inventors, and a formylated random hexapeptide (formyl-MSADVG) (SEQ: ID: NO: 16) were either synthesized by Pepscan Presto (Lelystad, The Netherlands) or Inbiolabs (Tallinn, Estonia). The peptides were purified by RP-HPLC and mass spectrometry, and the >95% pure peptides were synthesized three times. Cells were treated with Foxy-5 or random peptide at a concentration of 100 μM for times as indicated. All other chemicals if not otherwise stated were purchased from Sigma Chemicals (St. Louis, Mo.).
Cells were lysed in Triton lysis buffer (50 mM Tris (pH7.5), 1% Triton x-100, 140 mM NaCl, 0.5 mM EDTA, 0.5 MgCl2, 10 mM NaF) with the addition of fresh leupeptin (1 μg/ml), Pefabloc (2 mM), aprotinin (20 μg/ml) and Na3VO4 (4 mM). […] Scanning and densitometry was performed using a Bio-Rad (Hercules Calif.) GS-800 densitometer with Quantity One software. […]

For the molecule “For-MSADVG [formylated random hexapeptide, reference compound]”, the “levels of ERα protein” value is given as “Neither of these stimulations resulted in increased levels”.

B1: recombinant Wnt-3a: recombinant Wnt-3a protein (R&D Systems), specificity control (protein, UniProt P56704 19-352, looked up)
Protein Wnt-3a: SYPIWWSLAVGPQYSSLGSQPILCASIPGLVPKQLRFCRNYVEIMPSVAEGIKIGIQECQHQFRGRRWNCTTVHDSLAIFGPVLDKATRESAFVHAIASAGVAFAVTRSCAEGTAAICGCSSRHQGSPGKGWKWGGCSEDIEFGGMVSREFADARENRPDARSAMNRHNNEAGRQAIASHMHLKCKCHGLSGSCEVKTCWWSQPDFRAIGDFLKDKYDSASEMVVEKHRESRGWVETLRPRYTYFKVPTERDLVYYEASPNFCEPNPETGSFGTRDRTCNVSSHGIDGCDLLCCGRGHNARAERRREKCRCVFHWCCYVSCQECTRVYDVHTCK
On to B1, for which the “levels of ERα protein” value is “Neither of these stimulations resulted in increased levels”.

Values taken from patent US20110124574A1, “RESTORATION OF ESTROGEN RECEPTOR-(ALPHA) ACTIVITY” (priority 2008, published 2011).
